The values that follow are results of earlier work, collected in article PMC8609999, “A Phase I trial of talazoparib in patients with advanced hematologic malignancies” (International Journal of Hematologic Oncology, 2021).

The subject of this data set is CLL or MCL patients. Also noted: method as in PMID 28643365. As to conditions: not statistically significant; cited from earlier work.

`O=C(c1cc(Cc2n[nH]c(=O)c3ccccc23)ccc1F)N1CCN(C(=O)C2CC2)CC1` [olaparib]: the “Overall survival in patients with ATM mutations versus those without” value is “trend towards improved overall survival”.
